Measurements published in patent publication US8114866B2, “Derivatives of 1-piperazine- and 1-homopiperazine-carboxylates, preparation method thereof and use of same as inhibitors of the FAAH enzyme” (Sanofi-Aventis, priority 2003, dated 2012).

How the values were obtained:
[1] = target: T1, enzyme FAAH (Fatty Acid Amido Hydrolase) (Mus musculus, UniProt O08914); assay: radioenzymatic test of FAAH inhibition (hydrolysis of anandamide [ethanolamine 1-3H], mouse brain membrane homogenates); format: biochemical; conditions: anandamide 10 μM, 15 minutes at 25° C., read-out: IC50 (concentration inhibiting 50% of the control enzymatic activity of FAAH)
T1 construct: The membrane homogenates are prepared extemporaneously by homogenizing the tissues with a Polytron machine; from tissue; host or cells: mouse brain (minus cerebellum) membrane homogenate
T1 sequence (O08914 1-579): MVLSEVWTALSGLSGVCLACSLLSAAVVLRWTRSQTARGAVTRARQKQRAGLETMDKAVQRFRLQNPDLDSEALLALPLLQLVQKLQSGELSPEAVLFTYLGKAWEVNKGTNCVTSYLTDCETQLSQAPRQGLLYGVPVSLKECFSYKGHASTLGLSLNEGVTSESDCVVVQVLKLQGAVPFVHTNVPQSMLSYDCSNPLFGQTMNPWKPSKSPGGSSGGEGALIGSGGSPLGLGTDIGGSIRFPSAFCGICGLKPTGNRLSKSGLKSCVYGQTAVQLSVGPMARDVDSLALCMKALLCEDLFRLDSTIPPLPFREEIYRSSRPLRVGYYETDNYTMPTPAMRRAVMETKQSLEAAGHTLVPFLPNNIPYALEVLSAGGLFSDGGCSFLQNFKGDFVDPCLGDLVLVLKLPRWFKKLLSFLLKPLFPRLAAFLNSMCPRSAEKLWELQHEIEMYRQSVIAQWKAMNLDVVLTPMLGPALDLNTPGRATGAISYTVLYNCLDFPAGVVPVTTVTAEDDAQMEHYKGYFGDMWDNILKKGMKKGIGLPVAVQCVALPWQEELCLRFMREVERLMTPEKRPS
Procedure: The compounds of the invention were subjected to pharmacological tests to determine their inhibitory effect on the enzyme FAAH (Fatty Acid Amido Hydrolase).
Thus, mouse brains (minus the cerebellum) are removed and stored at −80° C. The membrane homogenates are prepared extemporaneously by homogenizing the tissues with a Polytron machine in 10 mM Tris-HCl buffer (pH 8) containing 150 mM NaCl and 1 mM EDTA. The enzymatic reaction is then performed in 70 μl of buffer containing fatty-acid-free bovine serum albumin (1 mg/ml). The various test compounds at different concentrations, anandamide [ethanolamine 1-^3H] (specific activity of 15-20 Ci/mmol) diluted to 10 μM with cold anandamide, and the membrane preparation (400 μg of thawed tissue per test) are successively added. After 15 minutes at 25° C., the enzymatic reaction is quenched by adding 140 μL of chloroform/methanol (2:1). The mixture is stirred for 10 minutes and then centrifuged for 15 minutes at 3500×g. An aliquot (30 μL) of the aqueous phase containing the ethanolamine [1-^3H] is counted by liquid scintillation.

male OF1 mice = assay: test of analgesia: abdominal stretching induced by PBQ (phenylbenzoquinone) i.p.; format: in vivo; conditions: 1 mg/kg p.o. at 2 hours, PBQ 2 mg/kg i.p.
Procedure: It is thus seen that the compounds according to the invention have inhibitory activity on the enzyme FAAH. The in vivo activity of the compounds of the invention was evaluated in a test of analgesia.
Thus, the intraperitoneal (i.p.) administration of PBQ (phenylbenzoquinone, 2 mg/kg in a 0.9% sodium chloride solution containing 5% ethanol) to male OF1 mice weighing 25 to 30 g causes abdominal stretching, on average 30 twists or contractions in the period from 5 to 15 minutes after injection. The test compounds are administered orally as a 0.5% suspension in Tween 80, 60 minutes or 120 minutes before the administration of PBQ. Under these conditions, the most powerful compounds of the invention reduce the number of stretches induced by PBQ by 35 to 70%, in a dosage range of between 1 and 30 mg/kg.

IC50 [1] [nM] | melting point [°C] | Structure (SMILES) | Reduction of the number of stretches (%) (male OF1 mice)
7 | 187 to 189 | CNC(=O)COC(=O)N1CCN(c2ccc(-c3ccc(OC(F)(F)F)cc3)cc2)CC1 [Compound 44, 2-(methylamino)-2-oxoethyl 4-{4′-[(trifluoromethyl)oxy]-4-biphenyl}-1-piperazinecarboxylate] | −53 (a) %
 | 191 to 193 | CNC(=O)COC(=O)N1CCCN(c2ccc(-c3ccc(OC(F)(F)F)cc3)cn2)CC1 [Compound 103, 2-(methylamino)-2-oxoethyl 4-(5-{4-[(trifluoromethyl)oxy]phenyl}-2-pyridyl)-1,4-diazepane-1-carboxylate] | 
 | 189 to 190 | Cc1cc(F)cc2c1OCCC2 [Compound 15] | 
 | 127 to 129 | CNC(=O)COC(=O)N1CCN(c2ccc(CC(C)C)cn2)CC1 [Compound 63, 2-(methylamino)-2-oxoethyl 4-[5-(2-methylpropyl)-2-pyridyl]-1-piperazinecarboxylate] | 
 | 155 to 157 | NC(=O)COC(=O)N1CCN(c2ccc(-c3cccc(C(F)(F)F)c3)nc2)CC1 [Compound 86, 2-amino-2-oxoethyl 4-{6-[3-(trifluoromethyl)phenyl]-3-pyridyl}-1-piperazinecarboxylate] | 
 | 197 to 198 | Cc1ccc(-c2ccc([N+](=O)[O-])cc2)cc1 [Compound 36] | 
290 | 158 to 160 | CNC(=O)COC(=O)N1CCN(c2ccc(-c3cccc(C(F)(F)F)c3)cn2)CC1 [Compound 76, 2-(methylamino)-2-oxoethyl 4-{5-[3-(trifluoromethyl)phenyl]-2-pyridyl}-1-piperazinecarboxylate] | −47 (a) %
 | 146 to 150 | CNC(=O)COC(=O)N1CCN(c2ccc(-c3cccc(C(F)(F)F)c3)nc2)CC1 [Compound 85, 2-(methylamino)-2-oxoethyl 4-{6-[3-(trifluoromethyl)phenyl]-3-pyridyl}-1-piperazinecarboxylate] | 
 | 203 to 206 | Cc1ccc(-c2ccc(Cl)cc2)cn1 [Compound 75] | 
20 |  | CNC(=O)COC(=O)N1CCN(c2ccc(-c3ccc(Cl)cc3)cc2)CC1 [Compound 34] | 
 | 87 to 89 | CNC(=O)COC(=O)N1CCN(c2ccc(CC(C)C)nc2)CC1 [Compound 66, 2-(methylamino)-2-oxoethyl 4-[6-(2-methylpropyl)-3-pyridyl]-1-piperazinecarboxylate] | 
44 |  | CCOc1ccc(-c2ccc(N3CCN(C(=O)OCC(=O)NC)CC3)cc2)cc1 [Compound 43] | 
190 | 129 to 130 | CNC(=O)COC(=O)N1CCN(c2ccc(-c3cccc(C(F)(F)F)c3)cc2)CC1 [Compound 37, 2-(methylamino)-2-oxoethyl 4-[3′-(trifluoromethyl)-4-biphenylyl]-1-piperazinecarboxylate] | −57 (a) %
 | 151 to 153 | CNC(=O)COC(=O)N1CCN(c2ccc(-c3cccc(C(F)(F)F)c3)nn2)CC1 [Compound 87, 2-(methylamino)-2-oxoethyl 4-{6-[3-(trifluoromethyl)phenyl]-3-pyridazinyl}-1-piperazinecarboxylate] | 
 | 206 to 209 | CNC(=O)COC(=O)N1CCN(c2ccc(-c3ccc(C(F)(F)F)cc3)cn2)CC1 [Compound 79, 2-(methylamino)-2-oxoethyl 4-{5-[4-(trifluoromethyl)phenyl]-2-pyridyl}-1-piperazinecarboxylate] | 
 | 204 to 206 | Cc1ccc(-c2ccc(Cl)cc2)cn1 [Compound 98] | 
12 | 188 to 190 | CNC(=O)COC(=O)N1CCN(c2ccc(-c3ccc(OC(F)(F)F)cc3)cn2)CC1 [Compound 83, 2-(methylamino)-2-oxoethyl 4-(5-{4-[(trifluoromethyl)oxy]phenyl}-2-pyridyl)-1-piperazinecarboxylate] | 
